The source of these data is patent EP0121013A1, “Oral compositions” (UNILEVER PLC, priority 1983, dated 1984).

Data set [1] is described as follows: Ionisation: release of available F. Type of data set: physicochemical. From the text:
The corresponding values for Na2SnF6 are 73% and 38%, respectively. Thus Na2SnF6 is less ionised than Sn(NH4)2F6.

For data set [2] the following is noted: applied topically to the teeth; Caries Res. 3, 315-325, 1969; cited from earlier work.
The subject of a further data set is Lactobacillus casei. Kind of data set: Inhibition of bacterial growth (optical density after 24 hours). Conditions: L.casei; for IC50: 24 hours at 37°C, means of triplicate experiments, read-out: ID/50 (the source's name); for ID/50: recalculated as ppm F, 1440 min. The format is cell-based. The text has this: (§1) Cariogenic Bacteria used for testing the effect of Sn(^NH4)2F6 were Streptococcus mutans (strains coded 6715 and OMZ-176), Streptococcus sanguis (strains coded 10556 and 10557), Streptococcus salivarius (strains coded SS4 and H257), and Lactobacillus casei. All of the above organisms were maintained as lyophilised cultures until the time for use.
(§2) It is generally agreed that oral bacteria are responsible for tooth decay. Therefore, a reduction of the cariogenic flora usually results in a decrease in caries formation. The inhibitory action of the test compounds was. determined by adding each salt, at known concentrations, to a culture of cariogenic bacteria. After 24 hours at 37°C bacterial growth was monitored as a change in optical density. A dose response curve (concentration of salt vs. growth) for each compound against each bacterial isolate was plotted in order to obtain the concentration of test agent which would cause a 50% inhibition in growth (ID/50). This is a useful ranking index since it is not always possible to obtain complete inhibition with weak germicidal agents. Only those compounds which were able to elicit an ID/50 response were considered as inhibitory agents.
(§3) The medium used for bacterial growth experiments was Trypticase Soy Broth (B.B.L.: Baltimore Biological Labs., Baltimore, MD) supplemented with 0.1% Tween 80 (the word Tween is a trade mark) and 0.05% sodium thioglycollate. The test organisms, as lyophilised cells, were grown overnight in 50 mls of growth medium in a vacuum desiccator with an atmosphere of 97% CO /3% H2 at 35°C. These cultures were then used at a 0.2% inoculum to prepare second stage seed flasks. The test media (10ml) consisting of growth medium plus the potential inhibitors, contained in 16 x 120 mm screw top test tubes, were inoculated with the second stage seed cultures to given an absorbancy reading of 0.05. Immediately after inoculation the cultures were incubated for 24 hours under anaerobic conditions.
(§4) The growth medium was sterilised by autoclaving, whereas the potential inhibitors (as aqueous solutions) were sterilised by filtering each solution separately through a Millipore membrane (0.22 /u).
(§5) Absorbance at 600 nm versus a medium control was used as a measure of growth on a Beckman Model B spectrophotometer. All absorbancy readings were determined in 16 mm x 120 mm Kimax test tubes. This instrument was linear to 0.60 OD units; thus, all cultures displaying values above this range were diluted with the control, accordingly.

Data set [3] relates to Streptococcus mutans 6715. The data set is described as above. The format is cell-based. Conditions: S.mutans 6715; recalculated as ppm F; 1440 min.
Text: as §1, §2, §3, §4, §5

Data set [4] concerns Streptococcus mutans OMZ-176. The description is as above. The format is cell-based. Conditions: S.mutans OMZ-176; for IC50: 24 hours at 37°C, means of triplicate experiments, read-out: ID/50 (the source's name); for ID/50: recalculated as ppm F, 1440 min.
Text: as §1, §2, §3, §4, §5

Data set [5] has as its system Streptococcus salivarius H257. The data set is described as above. Conditions: S.salivarius H-257; for IC50: 24 hours at 37°C, means of triplicate experiments, read-out: ID/50 (the source's name); for ID/50: recalculated as ppm F, 1440 min. The format is cell-based.
Text: as §1, §2, §3, §4, §5

For data set [6], the system named is Streptococcus salivarius SS4. The description is as above. Type of data set: cell-based. Conditions: S.salivarius SS4; for IC50: 24 hours at 37°C, means of triplicate experiments, read-out: ID/50 (the source's name); for ID/50: recalculated as ppm F, 1440 min.
Text: as §1, §2, §3, §4, §5

For data set [7], the system named is Streptococcus sanguis 10556. The description is as above. The format is cell-based. The conditions noted are these: S.sanguis 10556; for IC50: 24 hours at 37°C, means of triplicate experiments, read-out: ID/50 (the source's name); for ID/50: recalculated as ppm F, 1440 min.
Text: as §1, §2, §3, §4, §5

Data set [8] concerns Streptococcus sanguis 10557. The description is as above. Type of data set: cell-based. Conditions: S.sanguis 10557; for IC50: 24 hours at 37°C, means of triplicate experiments, read-out: ID/50 (the source's name); for ID/50: recalculated as ppm F, 1440 min.
Text: as §1, §2, §3, §4, §5

Another data set can be described thus: pH of aqueous solution. Type of data set: physicochemical. The text has this:
An aqueous solution of Sn(NH4)2F6 has a ^pH of about 3.8 as compared to a pH of 3.0 for SnF2. This higher pH characteristic eliminates some of the formulation problems encountered with the strong acid effect of SnF2. The preferred pH of oral compositions containing ^Sn(NH4)2F6 is from 3.5 to 8.0. A 1000 ppm F^- solution of Sn(NH4)2F6 was stable.

A short description of data set [9]: Stability of aqueous solution on standing (haze / turbidity). The conditions noted are these: 1000 ppm F- solution of Sn(NH4)2F6 on standing several weeks; SnF2 solution after 24 hours at room temperature. Type of data set: physicochemical.
Where [10] appears, read: concentration equivalent to 1000 ppm.
Setting [11] is: concentration equivalent to 2500 ppm.

Structures are written as SMILES.

On to `[F-].[F-].[F-].[F-].[F-].[F-].[Na+].[Na+].[Sn+4]` [Na2SnF6, sodium hexafluorostannate], for which the entries for the “released available F” value in data set [1] (setting [10]) and in data set [1] (setting [11]) were 73% and 38%, respectively. The caries inhibiting effect entry in [2] is recorded as “has a caries inhibiting effect”.

Turning to `[F-].[Na+]` [NaF], the IC50 with Lactobacillus casei is more than 12000 µM; in data set [4], 16300 µM; in data set [5], 3770 µM; in data set [6], 13400 µM; in [7] it was 1180 µM; in data set [8], 1820 µM. Further, the ID/50 in the data set on Lactobacillus casei is recorded as 352 ppm F; in [3], 138 ppm F; in [4], 309 ppm F; in [5], 72 ppm F; in data set [6], 255 ppm F; in [7], 22 ppm F. Further, the ID/50 in data set [8] was 35 ppm F.

For the molecule `N.N.[F-].[F-].[F-].[F-].[F-].[F-].[Sn]` [Sn(NH4)2F6, stannic ammonium fluoride], the IC50 with Lactobacillus casei was 2530 µM; in data set [4] it was 1430 µM; in [5], 400 µM; in data set [6] it was 1650 µM; in data set [7], 220 µM; in data set [8], 390 µM. The ID/50 in the data set with Lactobacillus casei is reported as 288 ppm F; in data set [3], 137 ppm F; in data set [4] it was 163 ppm F; in data set [5], 46 ppm F; in [6], 188 ppm F; in data set [7] it was 25 ppm F. In addition, the ID/50 in data set [8] is recorded as 45 ppm F. Also, the pH result in “pH of aqueous solution” is listed as “about 3.8”. Further, the stability of solution entry in data set [9] is “stable”. In addition, the “released available F” value in [1] (setting [10]) and in data set [1] (setting [11]) was “the same ionisation values as SnF2” in each case.

On to `[Cl][Sn][Cl]` [SnCl2], for which the IC50 with Lactobacillus casei lay within 3000 to 6000 µM.

For `[F][Sn][F]` [SnF2], the IC50 in the data set with Lactobacillus casei worked out at 2970 µM; in data set [4], 2280 µM; in data set [5] it was 740 µM; in data set [6] it was 2450 µM; in data set [7], 440 µM; in [8] it was 840 µM. In addition, the ID/50 with Lactobacillus casei is on record as 113 ppm F; in [3] it was 56 ppm F; in data set [4] it was 87 ppm F; in data set [5], 29 ppm F; in [6], 93 ppm F; in data set [7] it was 17 ppm F. Besides, the ID/50 in [8] is recorded as 32 ppm F. The pH in the data set “pH of aqueous solution” is reported as 3.0. The stability of solution result in data set [9] is “developed turbidity”. The “released available F” value in [1] (setting [10]) was found to be 80%; in data set [1] (setting [11]), 45%.
